Measured values published in patent US20250270213A1, “PI3Ka INHIBITORS” (Synnovation Therapeutics, Inc., priority 2022, published 2025).

The molecules below were run on T47D (PIK3CA H1047R) cells (assay: pS473 AKT assay with 2.5% FBS, T47D cells). Settings: Homo sapiens, pSer473 AKT, DMEM with 2.5% FBS, 2 h treatment, read-out: T47D_IC50.
Type: cell-based
Summary of the method: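 T47D (PIK3CA H1047R) cells were switched to DMEM with 2.5% FBS and exposed to compounds for 2 h. After paraformaldehyde fixation, pSer473 AKT was detected by in-cell ELISA (rabbit primary, HRP anti-rabbit secondary, chemiluminescence); IC50 values were fitted from the concentration series.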

IC50, < 1000 nM:
CC(Nc1ccccc1C(=O)O)c1cc(Cl)cc2c(=O)n(C)c3cncn3c12 (centres unmarked) [Compound I-10, 2-((1-(7-Chloro-4-methyl-5-oxo-4,5-dihydroimidazo[1,5-a]quinazolin-9-yl)ethyl)amino)benzoic acid]
CCn1c(=O)c2cc(C)cc(C(C)Nc3ccc(Cl)nc3-c3ncn(C)n3)c2c2cn(C3CCN(CCC#N)CC3)nc21 (centres unmarked) [Example 204, 3-(4-(9-(1-((6-Chloro-2-(1-methyl-1H-1,2,4-triazol-3-yl)pyridin-3-yl)amino)ethyl)-4-ethyl-7-methyl-5-oxo-4,5-dihydro-2H-pyrazolo[3,4-c]isoquinolin-2-yl)piperidin-1-yl)propanenitrile]
Cc1cc(C(C)Nc2ccc(C)nc2-c2noc(=O)[nH]2)c2c(c1)c(=O)n1c3c2cnn3C(C)CC1 (centres unmarked) [Compound 325, 3-(3-((1-(3,8-Dimethyl-6-oxo-4,5-dihydro-3H,6H-2,2a,5a-triazaaceanthrylen-10-yl)ethyl)amino)-6-methylpyridin-2-yl)-1,2,4-oxadiazol-5(4H)-one]
Cc1cc(C(C)Nc2ccc(Cl)nc2-c2nnn(C)n2)c2c(c1)c(=O)n1c3c2cnn3C(CO)CC1 (centres unmarked) [Example 285, 10-(1-((6-chloro-2-(2-methyl-2H-tetrazol-5-yl)pyridin-3-yl)amino)ethyl)-3-(hydroxymethyl)-8-methyl-4,5-dihydro-3H,6H-2,2a,5a-triazaaceanthrylen-6-one]
Cc1cc(C(C)Nc2ccc(Cl)nc2-c2ncn(C)n2)c2c(c1)c(=O)n(C)c1c2cnn1C1CN(C)C1 (centres unmarked) [Compound 82, 9-(1-((6-chloro-2-(1-methyl-1H-1,2,4-triazol-3-yl)pyridin-3-yl)amino)ethyl)-4,7-dimethyl-3-(1-methylazetidin-3-yl)-3,4-dihydro-5H-pyrazolo[3,4-c]isoquinolin-5-one]
Cc1cc(C(CO)Nc2ccc(Cl)nc2-c2ncn(C)n2)c2c(c1)c(=O)n1c3c2cnn3CCC1 (centres unmarked) [Compound 328, 10-(1-((6-Chloro-2-(1-methyl-1H-1,2,4-triazol-3-yl)pyridin-3-yl)amino)-2-hydroxyethyl)-8-methyl-4,5-dihydro-3H,6H-2,2a,5a-triazaaceanthrylen-6-one]
CCn1ncc2c3c(C(C)Nc4ccc(Cl)nc4-c4cnnn4C)cc(C)cc3c(=O)n(C)c21 (centres unmarked) [Example 231, 9-(1-((6-chloro-2-(1-methyl-1H-1,2,3-triazol-5-yl)pyridin-3-yl)amino)ethyl)-3-ethyl-4,7-dimethyl-3,4-dihydro-5H-pyrazolo[3,4-c]isoquinolin-5-one]
Cc1cc(C(C)Nc2ccc(Cl)nc2-c2ccc(CN(C)C)nc2)c2c(c1)c(=O)n1c3c2cnn3CCC1 (centres unmarked) [Compound 324, 10-(1-((6-Chloro-6′-((dimethylamino)methyl)-[2,3′-bipyridin]-3-yl)amino)ethyl)-8-methyl-4,5-dihydro-3H,6H-2,2a,5a-triazaaceanthrylen-6-one]
CNC(=O)c1ccc(-c2nc(Cl)ccc2NC(C)c2cc(C)cc3c(=O)n(C)c4c(cnn4C4CN(C(C)=O)C4)c23)cn1 (centres unmarked) [Compound 101, 3-((1-(3-(1-acetylazetidin-3-yl)-4,7-dimethyl-5-oxo-4,5-dihydro-3H-pyrazolo[3,4-c]isoquinolin-9-yl)ethyl)amino)-6-chloro-N-methyl-[2,3′-bipyridine]-6′-carboxamide]
COc1cc(-c2nc(Cl)ccc2NC(C)c2cc(C)cc3c(=O)n(C)c4c(cnn4CCO)c23)ccn1 (centres unmarked) [Example 256, 9-[1-[[6-chloro-2-(2-methoxy-4-pyridyl)-3-pyridyl]amino]ethyl]-3-(2-hydroxyethyl)-4,7-dimethyl-pyrazolo[3,4-c]isoquinolin-5-one]
Cc1cc(C(C)Nc2ccc(Cl)nc2-c2cccnc2)c2c(c1)c(=O)n1c3c2cnn3CCC1 (centres unmarked) [Compound 307, 10-(1-((6-chloro-[2,3′-bipyridin]-3-yl)amino)ethyl)-8-methyl-4,5-dihydro-3H,6H-2,2a,5a-triazaaceanthrylen-6-one]
